Results: publication PMC10249623 (Environmental Science & Technology, 2023)
Like-named read-outs stand apart in the source and are kept apart here. Marks after values point to notes of the source that are not given here.

Legend:
[1] = Direct measurement of Kaw using the standard VPR-HS method; format: physicochemical; settings: measured by the VPR-HS method in this study, 25 °C
Text: Kaw values for five PFAS were directly measured using a standard VPR-HS method, as in the literature.[7],[8] The experimental procedure is similar to what has been described previously for KHxd/air([21]) and is summarized in SI-3.

[2] = Hexadecane/water partition coefficient, modified VPR-HS method; format: physicochemical; settings: 25 °C
Method: KHxd/w was also measured with a modified version of the VPR-HS method; 20 mL headspace vials were filled with water and hexadecane with different volume ratios. The total liquid volume was always 20 mL. All vials received the same amount of the target compound. After equilibration at 25 °C, the headspace was injected into the GC/MS. […] Here, response linearity as well as no significant mass of the compound in the headspace and any other interface (e.g., vial wall, hexadecane/water interface, septum) was assumed. As α, m, and Vtot (=20 mL) are constant for a given compound, KHxd/w can be fitted on the data of PA vs VHxd. Theoretically, KHxd/w could be determined with a minimum of two VHxd conditions (e.g., 0 and 20 mL), whereas at least four VHxd values were prepared in this work.

[3] = Hexadecane/water partition coefficient, batch partition method; format: physicochemical; settings: for log KHxd/w batch partition method mean: 25 °C, n = 5; for log KHxd/w with pure water lower than with 1 mM HCl solution by: preliminary experiments, pure water vs 1 mM HCl
[4] = Air/water partition coefficient via hexadecane/air/water thermodynamic cycle (eq 1); format: physicochemical; settings: for log Kaw eq 1: 25 °C, KHxd/w divided by KHxd/air
Method: The objectives of this study are to obtain new experimental data for Kaw at 25 °C for a series of neutral PFAS and to evaluate Kaw prediction models. […] To circumvent the difficulty associated with direct measurement of Kaw, we determined Kaw indirectly by measuring the hexadecane/water partition coefficient (KHxd/w) and applying the hexadecane/air/water thermodynamic cycle: [drawing 1] 1 where KHxd/air is the hexadecane/air partition coefficient. KHxd/w can be measured more reliably than Kaw because gas phase quantification is not needed and hexadecane has a larger solubilization capacity than water, which minimizes the problem of third-phase sorption. […] The new Kaw data for 21 PFAS were compared to predictions by four models that are often used in environmental risk assessments.

[5] = Hexadecane/water partition coefficient, shared-headspace method; format: physicochemical; settings: for log KHxd/w shared-headspace method mean: 25 °C, n = 5
Method: The method concept is based on the existing publications that used a shared-headspace system for salting-out experiments[26] and ecotoxicity tests.[27],[28] Hexadecane solution of PFAS was placed in a 350 μL insert hosted by a 1.5 mL GC vial. This small vial was put in a 10 mL headspace vial that contained 1 mL of water. The 10 mL vial was closed with a PTFE-lined septum and gently shaken at 25 °C for 24 h. During this time, the compound dissolved in hexadecane was partially transferred to water via the headspace until a three-phase partition equilibrium was reached between hexadecane, air, and water. Water was then sampled and immediately extracted with n-hexane for GC/MS analysis. The hexadecane phase was also analyzed, which confirmed 85–100% mass conservation (Table S3). KHxd/w was obtained from the measured concentration in water, as in the batch partition method. […] The shared-headspace method is useful for compounds with sufficient volatility (relatively high Kaw, low KHxd/air) and hydrophobicity (relatively high KHxd/w), as these properties ensure an efficient transfer from hexadecane to water via air and negligible concentration depletion in hexadecane. Therefore, nine PFAS that meet this requirement were measured by this method, while all eight sulfonamides and four short-chain FTOHs were not.
SI-1 Extended descriptions for experimental methods
Pure PFAS were dissolved in hexadecane either directly or using acetone as carrier solvent. Up to three PFAS were mixed in hexadecane and investigated simultaneously. The PFAS concentration in hexadecane was 0.1–2000 mg/L, depending on the expected KHxd/w and the sensitivity of the quantification method. The acetone content in hexadecane was up to 0.3% (v/v). This acetone should have largely partitioned into water during the partition experiment, where the final concentration in water was estimated to be < 0.3% (v/v). We assumed that this concentration of acetone in water does not have a significant influence on partition coefficients of PFAS. […]
The water phase was analyzed directly by liquid chromatography/mass spectrometry (LC/MS) (for PFBSA, PFHxSA, MeFBSA, MeFHxSA, MeFBSE), diluted with acetonitrile and analyzed with LC/MS (for PFOSA EtFHxSA, EtFHxSE), or liquid-liquid-extracted with n-hexane and analyzed by gas chromatography/mass spectrometry (GC/MS) (for all others). The hexadecane phase was back-extracted with water (for PFBSA, PFHxSA) or with 0.1 mM NaOH water (for PFOSA) and measured by LC/MS, or it was diluted with n-hexane by a factor of 100–500 and analyzed by GC/MS (for all others). […]
The 95% confidence interval (CI) of the mean (x) was calculated with the formula, x ± 2.78 SD/√5, where SD is the standard deviation, based on the t-distribution and n = 5. […]
PFHxSA, PFOSA, MeFBSA, MeFHxSA, and EtFHxSA were performed using 1 mM HCl aqueous solution […]
A shared headspace method was used to measure KHxd/w for nine PFAS. In this method, hexadecane solution of PFAS was prepared as described above and 300 μL was placed in a 350-μL glass insert

[6] = cited from earlier work
[7] = 1 mM HCl was used instead of pure water

SMILES	log KHxd/w batch partition method mean ([3]; pure water)	log Kaw eq 1 [4]	log KHxd/w shared-headspace method mean [5]	further results
OCC(F)(F)C(F)(F)C(F)(F)F [3:1 FTOH, 1H,1H-perfluorobutan-1-ol]	–	–	–	log Kaw VPR-HS [1]: –2.03 ^d
OCCCC(F)(F)C(F)(F)C(F)(F)F [3:3 FTOH, 3-(perfluoropropyl)propan-1-ol]	0.52	–2.17	–	log KHxd/w modified VPR-HS method mean [2]: 0.32; log Kaw VPR-HS [1]: –2.04 ^d
FC(F)(F)C(F)(F)C(F)(F)C(F)(F)CCI [4:2 FTI, 1H,1H,2H,2H-perfluorohexyl iodide]	–	1.60	4.93	–
C=C(C)C(=O)OCCC(F)(F)C(F)(F)C(F)(F)C(F)(F)F [4:2 FTMAC, 1H,1H,2H,2H-perfluorohexyl methacrylate]	–	0.62	4.65	log Kaw VPR-HS [1]: –0.14 ^d
OCCC(F)(F)C(F)(F)C(F)(F)C(F)(F)F [4:2 FTOH, 1H,1H,2H,2H-perfluorohexan-1-ol]	0.79	–1.57	–	log KHxd/w modified VPR-HS method mean [2]: 0.75; log Kaw VPR-HS [1]: –1.56; log Kaw VPR-HS or VP/S ([6]; 23 or 24 °C ref 12): −1.52; log Kaw VPR-HS or VP/S ([6]; literature value ref 7): −1.30; log Kaw VPR-HS or VP/S ([6]; literature value ref 8): −1.63; log Kaw VPR-HS or VP/S ([6]; literature value ref 9): −1.21
OCCCCC(F)(F)C(F)(F)C(F)(F)C(F)(F)F [4:4 FTOH, 4-(perfluorobutyl)butan-1-ol]	1.60	–1.97	–	log KHxd/w modified VPR-HS method mean [2]: 1.43; log Kaw VPR-HS [1]: –1.28 ^d
CC(O)C(F)(F)C(F)(F)C(F)(F)C(F)(F)C(F)(F)F (stereo not shown) [5:2s FTOH, 1H,1H,1H,2H-perfluoroheptan-2-ol]	2.00	–0.15	2.04	log KHxd/w modified VPR-HS method mean [2]: 1.55
FC(F)(F)C(F)(F)C(F)(F)C(F)(F)C(F)(F)C(F)(F)CI [6:1 FTI, 1H,1H-perfluoroheptyl iodide]	–	2.28	5.66	–
FC(F)C(F)(F)C(F)(F)C(F)(F)C(F)(F)C(F)(F)CI [6:1 FTI-7H, 1H,1H,7H-perfluoroheptyl iodide]	–	0.70	4.62	log KHxd/w lower than that of 6:1 FTI by ([5]; difference to 6:1 FTI): 1.0 log unit; log Kaw lower than that of 6:1 FTI by ([4]; difference to 6:1 FTI): 1.6 log units
C=CC(=O)OCCC(F)(F)C(F)(F)C(F)(F)C(F)(F)C(F)(F)C(F)(F)F [6:2 FTAC, 1H,1H,2H,2H-perfluorooctyl acrylate]	–	1.27	5.43	–
OCCC(F)(F)C(F)(F)C(F)(F)C(F)(F)C(F)(F)C(F)(F)F [6:2 FTOH, 1H,1H,2H,2H-perfluorooctan-1-ol]	2.50	–0.64	2.51	log Kaw VPR-HS or VP/S ([6]; 23 or 24 °C ref 12): −0.44; log Kaw VPR-HS or VP/S ([6]; literature value ref 7): –1.47; log Kaw VPR-HS or VP/S ([6]; literature value ref 8): −0.56; log Kaw VPR-HS or VP/S ([6]; literature value ref 9): 0.37
OCC(F)(F)C(F)(F)C(F)(F)C(F)(F)C(F)(F)C(F)(F)C(F)(F)F [7:1 FTOH, 1H,1H-perfluorooctan-1-ol]	–	–0.26	2.70	–
OCCC(F)(F)C(F)(F)C(F)(F)C(F)(F)C(F)(F)C(F)(F)C(F)(F)C(F)(F)F [8:2 FTOH, 1H,1H,2H,2H-perfluorodecan-1-ol]	–	0.11	3.75	log Kaw VPR-HS or VP/S ([6]; 23 or 24 °C ref 12): 0.96; log Kaw VPR-HS or VP/S ([6]; literature value ref 7): –1.82; log Kaw VPR-HS or VP/S ([6]; literature value ref 8): 0.58; log Kaw VPR-HS or VP/S ([6]; literature value ref 9): 0.31
CCNS(=O)(=O)C(F)(F)C(F)(F)C(F)(F)C(F)(F)C(F)(F)C(F)(F)F [EtFHxSA, N-ethyl perfluorohexane sulfonamide]	–	–1.58	–	log KHxd/w batch partition method mean [3, 7]: 2.95 ^c
CCN(CCO)S(=O)(=O)C(F)(F)C(F)(F)C(F)(F)C(F)(F)C(F)(F)C(F)(F)F [EtFHxSE, N-ethyl perfluorohexane sulfonamidoethanol]	2.76	–3.02	–	–
CNS(=O)(=O)C(F)(F)C(F)(F)C(F)(F)C(F)(F)F [MeFBSA, N-methyl perfluorobutane sulfonamide]	–	–2.85	–	log KHxd/w batch partition method mean [3, 7]: 0.82 ^c
CN(CCO)S(=O)(=O)C(F)(F)C(F)(F)C(F)(F)C(F)(F)F [MeFBSE, N-methyl perfluorobutane sulfonamidoethanol]	0.49	–4.35	–	–
CNS(=O)(=O)C(F)(F)C(F)(F)C(F)(F)C(F)(F)C(F)(F)C(F)(F)F [MeFHxSA, N-methyl perfluorohexane sulfonamide]	–	–2.01	–	log KHxd/w batch partition method mean [3, 7]: 2.25 ^c
NS(=O)(=O)C(F)(F)C(F)(F)C(F)(F)C(F)(F)F [PFBSA, perfluorobutane sulfonamide]	–	–4.89	–	log KHxd/w batch partition method mean [3, 7]: –1.15 ^c; log KHxd/w with pure water lower than with 1 mM HCl solution by [3]: 0.5–0.9 log units
NS(=O)(=O)C(F)(F)C(F)(F)C(F)(F)C(F)(F)C(F)(F)C(F)(F)F [PFHxSA, perfluorohexane sulfonamide]	–	–3.94	–	log KHxd/w batch partition method mean [3, 7]: 0.39 ^c; log KHxd/w with pure water lower than with 1 mM HCl solution by [3]: 0.5–0.9 log units
NS(=O)(=O)C(F)(F)C(F)(F)C(F)(F)C(F)(F)C(F)(F)C(F)(F)C(F)(F)C(F)(F)F [PFOSA, perfluorooctane sulfonamide]	–	–3.04	–	log KHxd/w batch partition method mean [3, 7]: 1.80 ^c
